Measurements reported in ChEMBL document CHEMBL3885861, “Open TG-GATES”.

Organism: Rattus norvegicus
Experiment: Open TG-GATES - Regimen: Daily Repeat
Assay type: toxicity, organism-based, Sprague-Dawley
Design: regimen Daily Repeat, gender Male, age 6 weeks
Conditions: in vivo, po, route gavage; for APTT / Bas / Eos / Fbg / Ht / Lym / MCH / MCHC / MCV / Mono / Neu / PT / Plat / RBC / Ret / WBC / Hb: tissue Blood; for KIDNEY_L / KIDNEY_R / KIDNEY_TOTAL: tissue Kidney; for LIVER: tissue Liver; for ALP / AST / BUN / CRE / Ca / Cl / DBIL / GLC / IP / LDH / Na / PL / RALB / TBIL / TC / TG / TP / gamma-GTP: tissue Plasma
[1] = 0 mg/kg, 72 h, dose level Control, time 3 day
[2] = 0 mg/kg, […], dose level Control, time 7 day
[3] = 0 mg/kg, […], dose level Control, time 14 day
[4] = 0 mg/kg, […], dose level Control, time 28 day
[5] = 10 mg/kg, 72 h, dose level Low, time 3 day
[6] = 10 mg/kg, […], dose level Low, time 7 day
[7] = 10 mg/kg, […], dose level Low, time 14 day
[8] = 10 mg/kg, […], dose level Low, time 28 day
[9] = 30 mg/kg, 72 h, dose level Middle, time 3 day

Q: Which results are given for `CC(=O)N1CCN(c2ccc(OCC3COC(Cn4ccnc4)(c4ccc(Cl)cc4Cl)O3)cc2)CC1` (configuration not stated) [KETOCONAZOLE]?
A: TERMINAL_BW [1]: 231 g; APTT [1]: 20.9 s; Bas [1]: 0%; Eos [1]: 0.8%; Fbg [1]: 294.6 mg/dL; Ht [1]: 38.3%; Lym [1]: 82%; MCH [1]: 21.7 pg; MCHC [1]: 34.3%; MCV [1]: 63.3 fL; Mono [1]: 2.2%; Neu [1]: 14.2%; PT [1]: 16.5 s; Plat [1]: 118.7 x10_4/uL; RBC [1]: 604.8 x10_4/ul; Ret [1]: 6.5%; WBC [1]: 106.4 x10_2/uL; KIDNEY_L [1]: 1.1 g; KIDNEY_R [1]: 1.1 g; KIDNEY_TOTAL [1]: 2.1 g; LIVER [1]: 10.8 g; ALP [1]: 1650.6 IU/L; AST [1]: 68 IU/L; BUN [1]: 18.6 mg/dL; CRE [1]: 0.2 mg/dL; Ca [1]: 10.8 mg/dL; Cl [1]: 106.2 meq/L; DBIL [1]: 0 mg/dL; GLC [1]: 184.2 mg/dL; IP [1]: 5.9 mg/dL; LDH [1]: 222.4 IU/L; Na [1]: 140.2 meq/L; PL [1]: 142.6 mg/dL; RALB [1]: 3 g/dL; TBIL [1]: 0.012 mg/dL; TC [1]: 71 mg/dL; TG [1]: 85.2 mg/dL; TP [1]: 5.6 g/dL; gamma-GTP [1]: 1.4 IU/L; TERMINAL_BW [2]: 269.3 g; TERMINAL_BW [3]: 301.1 g; TERMINAL_BW [4]: 376.7 g; APTT [2]: 22.6 s; Bas [2]: 0%; Eos [2]: 1%; Fbg [2]: 301.6 mg/dL; Hb [2]: 13.6 g/dL; Ht [2]: 40.1%; Lym [2]: 78.4%; MCH [2]: 21.1 pg; MCHC [2]: 34%; Mono [2]: 2%; Neu [2]: 17.8%; PT [2]: 16.1 s; Plat [2]: 91.9 x10_4/uL; RBC [2]: 645.4 x10_4/ul; Ret [2]: 5.5%; WBC [2]: 94.3 x10_2/uL; APTT [3]: 22.2 s; Bas [3]: 0%; Eos [3]: 0.8%; Fbg [3]: 298 mg/dL; Hb [3]: 14 g/dL; Ht [3]: 40.9%; Lym [3]: 81.4%; MCH [3]: 20.5 pg; MCHC [3]: 34.3%; MCV [3]: 59.8 fL; Mono [3]: 1.6%; Neu [3]: 15.4%; PT [3]: 16.1 s; Plat [3]: 113.5 x10_4/uL; RBC [3]: 685 x10_4/ul; Ret [3]: 4.1%; WBC [3]: 110.9 x10_2/uL; Bas [4]: 0%; Eos [4]: 1%; Fbg [4]: 291.4 mg/dL; Hb [4]: 14.9 g/dL; Ht [4]: 43.4%; Lym [4]: 83.8%; MCH [4]: 19.1 pg; MCHC [4]: 34.3%; MCV [4]: 55.8 fL; Mono [4]: 1.6%; Neu [4]: 11.8%; PT [4]: 17 s; Plat [4]: 107.7 x10_4/uL; RBC [4]: 779.8 x10_4/ul; Ret [4]: 2.5%; WBC [4]: 126.2 x10_2/uL; KIDNEY_L [2]: 1.2 g; KIDNEY_R [2]: 1.2 g; KIDNEY_TOTAL [2]: 2.4 g; KIDNEY_L [3]: 1.1 g; KIDNEY_R [3]: 1.2 g; KIDNEY_TOTAL [3]: 2.3 g; KIDNEY_L [4]: 1.3 g; KIDNEY_R [4]: 1.4 g; KIDNEY_TOTAL [4]: 2.7 g; LIVER [2]: 12.2 g; LIVER [4]: 15.3 g; ALP [2]: 1766.8 IU/L; AST [2]: 69.2 IU/L; BUN [2]: 19 mg/dL; CRE [2]: 0.2 mg/dL; Ca [2]: 10.8 mg/dL; Cl [2]: 106.4 meq/L; DBIL [2]: 0 mg/dL; GLC [2]: 182.8 mg/dL; IP [2]: 6.7 mg/dL; LDH [2]: 176.2 IU/L; Na [2]: 141.8 meq/L; PL [2]: 156.8 mg/dL; RALB [2]: 3.2 g/dL; TBIL [2]: 0.002 mg/dL; TC [2]: 80.6 mg/dL; TG [2]: 102.8 mg/dL; TP [2]: 5.8 g/dL; gamma-GTP [2]: 1.2 IU/L; ALP [3]: 1657 IU/L; AST [3]: 71.2 IU/L; BUN [3]: 19 mg/dL; CRE [3]: 0.2 mg/dL; Ca [3]: 10.3 mg/dL; Cl [3]: 107.2 meq/L; DBIL [3]: 0 mg/dL; GLC [3]: 178.4 mg/dL; IP [3]: 6.4 mg/dL; LDH [3]: 207.6 IU/L; Na [3]: 142.4 meq/L; PL [3]: 167.6 mg/dL; RALB [3]: 3 g/dL; TBIL [3]: 0.002 mg/dL; TG [3]: 140.8 mg/dL; TP [3]: 5.8 g/dL; gamma-GTP [3]: 1 IU/L; ALP [4]: 1167.6 IU/L; AST [4]: 73.6 IU/L; BUN [4]: 19.6 mg/dL; CRE [4]: 0.2 mg/dL; Ca [4]: 10.3 mg/dL; Cl [4]: 106.8 meq/L; DBIL [4]: 0 mg/dL; GLC [4]: 190.2 mg/dL; IP [4]: 5.5 mg/dL; LDH [4]: 168.4 IU/L; Na [4]: 141.8 meq/L; PL [4]: 144.4 mg/dL; RALB [4]: 3.1 g/dL; TBIL [4]: 0.016 mg/dL; TC [4]: 66 mg/dL; TG [4]: 153.2 mg/dL; TP [4]: 6 g/dL; gamma-GTP [4]: 1.2 IU/L; TERMINAL_BW [5]: 236.3 g; APTT [5]: 19.5 s; Bas [5]: 0%; Eos [5]: 0.8%; Fbg [5]: 308.2 mg/dL; Hb [5]: 12.9 g/dL; Ht [5]: 37.7%; Lym [5]: 82.6%; MCH [5]: 21.8 pg; MCV [5]: 64 fL; Mono [5]: 2%; Neu [5]: 13.6%; PT [5]: 16.3 s; Plat [5]: 122.8 x10_4/uL; RBC [5]: 589.4 x10_4/ul; Ret [5]: 6.6%; WBC [5]: 82 x10_2/uL; KIDNEY_L [5]: 1 g; KIDNEY_R [5]: 1 g; KIDNEY_TOTAL [5]: 2.1 g; LIVER [5]: 11.3 g; ALP [5]: 1629.2 IU/L; AST [5]: 75 IU/L; BUN [5]: 18.2 mg/dL; CRE [5]: 0.2 mg/dL; Ca [5]: 11 mg/dL; Cl [5]: 106.6 meq/L; DBIL [5]: 0 mg/dL; GLC [5]: 184.8 mg/dL; IP [5]: 6.6 mg/dL; LDH [5]: 226 IU/L; Na [5]: 140.8 meq/L; PL [5]: 152.6 mg/dL; RALB [5]: 3 g/dL; TBIL [5]: 0.006 mg/dL; TC [5]: 78 mg/dL; TG [5]: 100.6 mg/dL; TP [5]: 5.7 g/dL; gamma-GTP [5]: 1 IU/L; TERMINAL_BW [6]: 260.1 g; TERMINAL_BW [7]: 306.4 g; TERMINAL_BW [8]: 374.4 g; APTT [6]: 21.2 s; Bas [6]: 0%; Eos [6]: 1.2%; Fbg [6]: 311 mg/dL; Hb [6]: 13.6 g/dL; Ht [6]: 40.3%; Lym [6]: 80%; MCH [6]: 21 pg; MCV [6]: 62.2 fL; Mono [6]: 2.4%; Neu [6]: 15.6%; PT [6]: 16.2 s; Plat [6]: 111.8 x10_4/uL; RBC [6]: 648.6 x10_4/ul; Ret [6]: 5.4%; WBC [6]: 117 x10_2/uL; APTT [7]: 21.3 s; Bas [7]: 0%; Eos [7]: 0.8%; Fbg [7]: 308.2 mg/dL; Hb [7]: 13.6 g/dL; Ht [7]: 40.2%; Lym [7]: 81.6%; MCH [7]: 20.3 pg; MCHC [7]: 33.8%; MCV [7]: 60.1 fL; Mono [7]: 1.2%; Neu [7]: 14.6%; PT [7]: 15.9 s; Plat [7]: 118 x10_4/uL; RBC [7]: 669.2 x10_4/ul; Ret [7]: 4.4%; WBC [7]: 116.4 x10_2/uL; APTT [8]: 23.8 s; Bas [8]: 0%; Eos [8]: 1%; Fbg [8]: 308.8 mg/dL; Hb [8]: 14.8 g/dL; Ht [8]: 43.5%; Lym [8]: 80.8%; MCV [8]: 56.9 fL; Mono [8]: 1.8%; Neu [8]: 15.2%; PT [8]: 16.8 s; Plat [8]: 108.8 x10_4/uL; RBC [8]: 764.6 x10_4/ul; Ret [8]: 2.6%; WBC [8]: 109.3 x10_2/uL; KIDNEY_L [6]: 1.1 g; KIDNEY_R [6]: 1.1 g; KIDNEY_TOTAL [6]: 2.1 g; KIDNEY_L [7]: 1.3 g; KIDNEY_R [7]: 1.3 g; KIDNEY_TOTAL [7]: 2.5 g; KIDNEY_L [8]: 1.4 g; KIDNEY_R [8]: 1.4 g; KIDNEY_TOTAL [8]: 2.8 g; LIVER [6]: 12.1 g; LIVER [7]: 13.7 g; LIVER [8]: 15.6 g; ALP [6]: 1544.4 IU/L; AST [6]: 68.4 IU/L; BUN [6]: 19 mg/dL; CRE [6]: 0.2 mg/dL; Ca [6]: 10.6 mg/dL; Cl [6]: 107 meq/L; DBIL [6]: 0 mg/dL; GLC [6]: 193 mg/dL; IP [6]: 6.9 mg/dL; LDH [6]: 228.6 IU/L; Na [6]: 142 meq/L; PL [6]: 144 mg/dL; RALB [6]: 3 g/dL; TBIL [6]: 0.004 mg/dL; TC [6]: 71.6 mg/dL; TG [6]: 120.2 mg/dL; TP [6]: 5.7 g/dL; gamma-GTP [6]: 1.2 IU/L; ALP [7]: 1416.2 IU/L; AST [7]: 67.6 IU/L; BUN [7]: 17.6 mg/dL; CRE [7]: 0.2 mg/dL; Ca [7]: 10.6 mg/dL; Cl [7]: 107 meq/L; DBIL [7]: 0 mg/dL; GLC [7]: 182.2 mg/dL; IP [7]: 6.4 mg/dL; LDH [7]: 187.6 IU/L; Na [7]: 143 meq/L; PL [7]: 155.2 mg/dL; RALB [7]: 3.1 g/dL; TBIL [7]: 0.004 mg/dL; TC [7]: 77.8 mg/dL; TP [7]: 5.8 g/dL; gamma-GTP [7]: 1 IU/L; ALP [8]: 1283.8 IU/L; AST [8]: 59.2 IU/L; BUN [8]: 17.8 mg/dL; CRE [8]: 0.2 mg/dL; Ca [8]: 10.4 mg/dL; Cl [8]: 107.6 meq/L; DBIL [8]: 0 mg/dL; GLC [8]: 182.4 mg/dL; IP [8]: 5.4 mg/dL; LDH [8]: 138.4 IU/L; Na [8]: 143 meq/L; PL [8]: 140.6 mg/dL; RALB [8]: 3.2 g/dL; TBIL [8]: 0.004 mg/dL; TC [8]: 69.8 mg/dL; TG [8]: 121.2 mg/dL; TP [8]: 6.1 g/dL; gamma-GTP [8]: 1.2 IU/L; TERMINAL_BW [9]: 228.5 g; APTT [9]: 20.7 s
